Set-up in all cases: scale not given: the % may be the effect or the level left
The target in experiment [1] is Insulin-like growth factor 1 receptor (Homo sapiens) (UniProt P08069). Put plainly: Inhibition of human IGF1R (954 to 1367 residues) assessed as enzyme activity at 1 uM using 33P ATP by radioactive filter binding assay.
Experiment [2] deals with Insulin receptor (Homo sapiens) (UniProt P06213). As to the kind of experiment: Inhibition of human IR (1001 to 1382 residues) assessed as enzyme activity at 1 uM using 33P ATP by radioactive filter binding assay.
The target of experiment [3] is Insulin receptor-related protein (Homo sapiens) (UniProt P14616). As to the kind of experiment: Inhibition of human IRR (944 to 1236 residues) assessed as enzyme activity at 1 uM using 33P ATP by radioactive filter binding assay.
Experiment [4] addresses Maternal embryonic leucine zipper kinase (Homo sapiens) (UniProt Q14680). Put plainly: Inhibition of human MELK (2 to 651 residues) assessed as enzyme activity at 1 uM using 33P ATP by radioactive filter binding assay.
Experiment [5] deals with Ribosomal protein S6 kinase alpha-5 (Homo sapiens) (UniProt O75582). Put plainly: Inhibition of human MSK1 (2 to 802 residues) assessed as enzyme activity at 1 uM using 33P ATP by radioactive filter binding assay.
Experiment [6] addresses T1, Lymphokine-activated killer T-cell-originated protein kinase (Homo sapiens) (UniProt Q96KB5).
T1 sequence (whole entry): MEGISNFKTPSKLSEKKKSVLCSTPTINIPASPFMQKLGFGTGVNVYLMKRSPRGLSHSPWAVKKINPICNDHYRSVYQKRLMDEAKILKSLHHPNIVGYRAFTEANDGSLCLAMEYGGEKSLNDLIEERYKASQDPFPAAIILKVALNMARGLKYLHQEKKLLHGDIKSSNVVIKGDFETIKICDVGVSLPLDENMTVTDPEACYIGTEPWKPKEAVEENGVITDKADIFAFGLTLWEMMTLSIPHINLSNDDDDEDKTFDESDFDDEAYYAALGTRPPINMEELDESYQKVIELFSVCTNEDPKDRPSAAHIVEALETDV
Put plainly: Inhibition of human PBK (2 to 297 residues) assessed as enzyme activity at 1 uM using 33P ATP by radioactive filter binding assay.

Experiment [7] deals with Serine/threonine-protein kinase pim-2 (Homo sapiens) (UniProt Q9P1W9). As to the kind of experiment: Inhibition of human PIM2 (2 to 334 residues) assessed as enzyme activity at 1 uM using 33P ATP by radioactive filter binding assay.
Experiment [8] has as its target RAC-alpha serine/threonine-protein kinase (Homo sapiens) (UniProt P31749). As to the kind of experiment: Inhibition of human PKBalpha (118 to 480 residues) assessed as enzyme activity at 1 uM using 33P ATP by radioactive filter binding assay.
Experiment [9] addresses RAC-beta serine/threonine-protein kinase (Homo sapiens) (UniProt P31751). Put plainly: Inhibition of human PKBbeta (120 to 481 residues) assessed as enzyme activity at 1 uM using 33P ATP by radioactive filter binding assay.
The target of experiment [10] is Serine/threonine-protein kinase PLK1 (Homo sapiens) (UniProt P53350). As to the kind of experiment: Inhibition of human PLK1 (1 to 603 residues) assessed as enzyme activity at 1 uM using 33P ATP by radioactive filter binding assay.
Experiment [11] concerns the target Serine/threonine-protein kinase N2 (Homo sapiens) (UniProt Q16513). Put plainly: Inhibition of human PRK2 (501 to 984 residues) assessed as enzyme activity at 1 uM using 33P ATP by radioactive filter binding assay.
Experiment [12] concerns the target Mitogen-activated protein kinase 14 (Homo sapiens) (UniProt Q16539). Put plainly: Inhibition of SAPK2a (unknown origin) assessed as enzyme activity at 1 uM using 33P ATP by radioactive filter binding assay.
Experiment [13] concerns the target SRSF protein kinase 1 (Homo sapiens) (UniProt Q96SB4). Put plainly: Inhibition of human SRPK1 (2 to 654 residues) assessed as enzyme activity at 1 uM using 33P ATP by radioactive filter binding assay.
Experiment [14] addresses Tyrosine-protein kinase BTK (Homo sapiens) (UniProt Q06187). As to the kind of experiment: Inhibition of human BTK (2 to 659 residues) assessed as enzyme activity at 1 uM using 33P ATP by radioactive filter binding assay.
Experiment [15] deals with Calcium/calmodulin-dependent protein kinase kinase 2 (Homo sapiens) (UniProt Q96RR4). Put plainly: Inhibition of human CAMKKb (1 to 541 residues) assessed as enzyme activity at 1 uM using 33P ATP by radioactive filter binding assay.
The target in experiment [16] is Serine/threonine-protein kinase Chk2 (Homo sapiens) (UniProt O96017). Put plainly: Inhibition of human CHK2 (5 to 543 residues) assessed as enzyme activity at 1 uM using 33P ATP by radioactive filter binding assay.
Experiment [17] concerns the target T2, Ephrin type-B receptor 3 (Homo sapiens) (UniProt P54753).
T2 sequence (whole entry): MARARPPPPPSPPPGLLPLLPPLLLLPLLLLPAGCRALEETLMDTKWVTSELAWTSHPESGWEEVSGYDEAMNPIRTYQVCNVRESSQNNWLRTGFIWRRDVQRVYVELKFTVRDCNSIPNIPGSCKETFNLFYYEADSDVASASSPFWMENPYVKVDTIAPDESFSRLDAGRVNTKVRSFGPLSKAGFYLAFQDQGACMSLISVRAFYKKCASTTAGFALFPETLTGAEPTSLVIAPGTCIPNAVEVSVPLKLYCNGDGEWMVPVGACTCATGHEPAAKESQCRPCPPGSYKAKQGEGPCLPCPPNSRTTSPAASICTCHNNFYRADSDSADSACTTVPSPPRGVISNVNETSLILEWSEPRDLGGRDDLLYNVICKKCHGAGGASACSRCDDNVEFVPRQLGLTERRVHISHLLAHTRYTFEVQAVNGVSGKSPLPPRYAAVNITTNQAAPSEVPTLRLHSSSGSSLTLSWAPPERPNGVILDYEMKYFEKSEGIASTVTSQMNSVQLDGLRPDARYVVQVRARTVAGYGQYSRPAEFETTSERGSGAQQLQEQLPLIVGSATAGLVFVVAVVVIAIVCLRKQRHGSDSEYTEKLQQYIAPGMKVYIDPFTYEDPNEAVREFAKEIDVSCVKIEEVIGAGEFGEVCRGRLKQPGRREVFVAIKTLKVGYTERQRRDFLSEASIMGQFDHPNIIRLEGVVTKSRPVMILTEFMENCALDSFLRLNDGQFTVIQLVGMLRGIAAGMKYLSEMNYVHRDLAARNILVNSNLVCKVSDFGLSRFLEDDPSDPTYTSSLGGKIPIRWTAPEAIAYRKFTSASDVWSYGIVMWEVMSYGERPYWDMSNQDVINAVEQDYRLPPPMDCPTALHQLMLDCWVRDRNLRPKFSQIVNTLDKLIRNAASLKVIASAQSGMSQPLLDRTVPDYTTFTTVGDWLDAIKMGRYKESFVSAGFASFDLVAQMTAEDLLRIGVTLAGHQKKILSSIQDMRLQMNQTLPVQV
As to the kind of experiment: Inhibition of human EPHB3 (561 to 998 residues) assessed as enzyme activity at 1 uM using 33P ATP by radioactive filter binding assay.

Experiment [18] deals with Fibroblast growth factor receptor 1 (Homo sapiens) (UniProt P11362). Put plainly: Inhibition of human FGFR1 (400 to 820 residues) assessed as enzyme activity at 1 uM using 33P ATP by radioactive filter binding assay.
Fibroblast growth factor receptor 1 (Homo sapiens), sequence (P11362 22-822 limits assumed): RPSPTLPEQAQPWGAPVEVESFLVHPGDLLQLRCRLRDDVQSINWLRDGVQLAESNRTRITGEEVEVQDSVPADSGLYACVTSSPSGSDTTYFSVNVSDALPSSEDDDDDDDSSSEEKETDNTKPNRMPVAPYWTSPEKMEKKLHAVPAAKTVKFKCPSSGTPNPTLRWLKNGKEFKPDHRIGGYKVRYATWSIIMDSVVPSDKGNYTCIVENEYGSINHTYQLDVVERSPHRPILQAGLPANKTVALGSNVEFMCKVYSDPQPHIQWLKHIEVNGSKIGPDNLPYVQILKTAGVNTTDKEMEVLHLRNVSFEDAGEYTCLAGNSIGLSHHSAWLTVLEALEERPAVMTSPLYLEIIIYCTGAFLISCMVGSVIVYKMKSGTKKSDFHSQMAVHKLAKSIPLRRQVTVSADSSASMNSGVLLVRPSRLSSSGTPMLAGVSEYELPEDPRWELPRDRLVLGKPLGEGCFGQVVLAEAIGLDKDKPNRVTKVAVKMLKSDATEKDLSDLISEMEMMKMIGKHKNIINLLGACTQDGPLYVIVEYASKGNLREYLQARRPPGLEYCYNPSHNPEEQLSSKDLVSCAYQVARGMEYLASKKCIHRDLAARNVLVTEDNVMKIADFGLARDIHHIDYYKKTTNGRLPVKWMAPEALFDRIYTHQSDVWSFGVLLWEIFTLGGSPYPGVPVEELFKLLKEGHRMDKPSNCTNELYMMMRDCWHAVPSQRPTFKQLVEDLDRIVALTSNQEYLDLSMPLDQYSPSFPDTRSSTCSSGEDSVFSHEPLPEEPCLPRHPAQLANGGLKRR

Serine/threonine-protein kinase Chk2 (Homo sapiens), sequence (O96017 whole entry, the tested form may be a part): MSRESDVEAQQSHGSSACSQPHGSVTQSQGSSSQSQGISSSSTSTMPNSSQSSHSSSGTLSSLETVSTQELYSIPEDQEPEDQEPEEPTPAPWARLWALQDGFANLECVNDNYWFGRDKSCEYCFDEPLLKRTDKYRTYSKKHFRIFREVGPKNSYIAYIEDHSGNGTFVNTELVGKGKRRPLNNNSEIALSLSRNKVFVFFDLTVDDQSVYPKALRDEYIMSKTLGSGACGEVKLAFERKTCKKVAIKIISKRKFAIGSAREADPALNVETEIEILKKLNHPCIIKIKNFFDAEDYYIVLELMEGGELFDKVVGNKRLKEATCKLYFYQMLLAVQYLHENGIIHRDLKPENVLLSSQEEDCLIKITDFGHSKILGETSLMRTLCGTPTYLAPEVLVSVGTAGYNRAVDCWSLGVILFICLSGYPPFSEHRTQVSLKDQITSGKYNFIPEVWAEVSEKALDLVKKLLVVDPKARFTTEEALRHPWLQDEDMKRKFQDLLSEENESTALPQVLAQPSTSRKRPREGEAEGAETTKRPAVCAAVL
RAC-beta serine/threonine-protein kinase (Homo sapiens), sequence (P31751 whole entry, the tested form may be a part): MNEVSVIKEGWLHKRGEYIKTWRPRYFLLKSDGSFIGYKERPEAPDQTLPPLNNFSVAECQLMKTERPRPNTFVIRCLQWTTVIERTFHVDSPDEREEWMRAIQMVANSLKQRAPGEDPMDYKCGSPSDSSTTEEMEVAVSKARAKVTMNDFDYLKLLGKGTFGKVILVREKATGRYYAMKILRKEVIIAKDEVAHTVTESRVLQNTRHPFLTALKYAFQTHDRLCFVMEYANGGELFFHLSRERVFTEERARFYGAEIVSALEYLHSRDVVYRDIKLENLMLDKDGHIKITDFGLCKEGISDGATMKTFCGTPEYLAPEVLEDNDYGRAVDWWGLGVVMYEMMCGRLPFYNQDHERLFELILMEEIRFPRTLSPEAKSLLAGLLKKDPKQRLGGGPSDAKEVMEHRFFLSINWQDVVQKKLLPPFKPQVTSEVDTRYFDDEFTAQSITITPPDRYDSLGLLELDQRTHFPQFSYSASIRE
Serine/threonine-protein kinase N2 (Homo sapiens), sequence (Q16513 whole entry, looked up, the tested form may be a part): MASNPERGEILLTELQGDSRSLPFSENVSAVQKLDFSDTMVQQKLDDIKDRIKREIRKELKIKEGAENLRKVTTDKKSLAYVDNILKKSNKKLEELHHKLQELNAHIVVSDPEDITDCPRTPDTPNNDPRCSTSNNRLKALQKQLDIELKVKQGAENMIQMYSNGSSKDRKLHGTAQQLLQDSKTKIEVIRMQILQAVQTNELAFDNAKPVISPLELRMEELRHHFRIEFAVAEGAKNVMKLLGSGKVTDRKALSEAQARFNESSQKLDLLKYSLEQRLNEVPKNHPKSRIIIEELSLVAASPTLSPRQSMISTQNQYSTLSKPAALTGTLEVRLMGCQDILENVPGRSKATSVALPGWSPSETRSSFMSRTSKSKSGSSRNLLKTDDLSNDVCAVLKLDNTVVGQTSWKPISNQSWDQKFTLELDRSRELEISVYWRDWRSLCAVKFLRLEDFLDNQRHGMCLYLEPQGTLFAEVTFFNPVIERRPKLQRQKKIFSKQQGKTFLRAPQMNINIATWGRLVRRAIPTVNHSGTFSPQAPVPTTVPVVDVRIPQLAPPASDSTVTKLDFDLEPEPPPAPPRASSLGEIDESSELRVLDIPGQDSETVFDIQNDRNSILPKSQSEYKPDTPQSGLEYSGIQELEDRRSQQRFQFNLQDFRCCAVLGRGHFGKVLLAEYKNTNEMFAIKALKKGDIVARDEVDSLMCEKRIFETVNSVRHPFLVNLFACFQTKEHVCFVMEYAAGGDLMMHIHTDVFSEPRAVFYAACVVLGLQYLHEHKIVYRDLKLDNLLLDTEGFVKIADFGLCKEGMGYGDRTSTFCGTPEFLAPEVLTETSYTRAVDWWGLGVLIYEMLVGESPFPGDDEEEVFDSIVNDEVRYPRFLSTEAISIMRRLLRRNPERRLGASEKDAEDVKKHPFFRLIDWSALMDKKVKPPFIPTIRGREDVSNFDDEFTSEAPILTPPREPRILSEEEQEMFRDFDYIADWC
Calcium/calmodulin-dependent protein kinase kinase 2 (Homo sapiens), sequence (Q96RR4 2-588 limits assumed): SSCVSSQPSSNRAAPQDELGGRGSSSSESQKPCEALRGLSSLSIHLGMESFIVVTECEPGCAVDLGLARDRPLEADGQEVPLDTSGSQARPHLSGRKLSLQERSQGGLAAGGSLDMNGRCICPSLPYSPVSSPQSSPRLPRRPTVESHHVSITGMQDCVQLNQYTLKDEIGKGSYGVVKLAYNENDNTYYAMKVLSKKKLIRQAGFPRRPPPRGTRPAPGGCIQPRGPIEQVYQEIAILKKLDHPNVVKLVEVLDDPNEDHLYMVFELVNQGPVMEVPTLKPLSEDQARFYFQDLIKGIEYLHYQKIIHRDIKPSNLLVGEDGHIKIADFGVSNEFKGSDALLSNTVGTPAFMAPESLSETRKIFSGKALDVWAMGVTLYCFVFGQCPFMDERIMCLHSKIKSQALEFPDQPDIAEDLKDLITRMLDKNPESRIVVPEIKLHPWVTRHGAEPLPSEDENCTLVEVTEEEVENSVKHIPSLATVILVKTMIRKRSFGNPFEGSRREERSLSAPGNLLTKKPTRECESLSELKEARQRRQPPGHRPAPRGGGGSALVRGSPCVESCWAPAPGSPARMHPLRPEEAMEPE
Serine/threonine-protein kinase pim-2 (Homo sapiens), sequence (Q9P1W9 whole entry, looked up, the tested form may be a part): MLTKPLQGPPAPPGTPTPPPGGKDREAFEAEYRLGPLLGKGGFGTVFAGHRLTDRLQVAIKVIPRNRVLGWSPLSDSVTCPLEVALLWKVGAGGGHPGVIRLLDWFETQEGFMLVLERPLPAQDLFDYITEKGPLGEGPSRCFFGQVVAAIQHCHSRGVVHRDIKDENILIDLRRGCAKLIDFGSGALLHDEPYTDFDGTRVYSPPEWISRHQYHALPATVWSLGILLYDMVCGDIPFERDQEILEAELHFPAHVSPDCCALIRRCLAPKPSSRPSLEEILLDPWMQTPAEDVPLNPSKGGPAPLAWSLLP
Insulin-like growth factor 1 receptor (Homo sapiens), sequence (P08069 31-736 limits assumed): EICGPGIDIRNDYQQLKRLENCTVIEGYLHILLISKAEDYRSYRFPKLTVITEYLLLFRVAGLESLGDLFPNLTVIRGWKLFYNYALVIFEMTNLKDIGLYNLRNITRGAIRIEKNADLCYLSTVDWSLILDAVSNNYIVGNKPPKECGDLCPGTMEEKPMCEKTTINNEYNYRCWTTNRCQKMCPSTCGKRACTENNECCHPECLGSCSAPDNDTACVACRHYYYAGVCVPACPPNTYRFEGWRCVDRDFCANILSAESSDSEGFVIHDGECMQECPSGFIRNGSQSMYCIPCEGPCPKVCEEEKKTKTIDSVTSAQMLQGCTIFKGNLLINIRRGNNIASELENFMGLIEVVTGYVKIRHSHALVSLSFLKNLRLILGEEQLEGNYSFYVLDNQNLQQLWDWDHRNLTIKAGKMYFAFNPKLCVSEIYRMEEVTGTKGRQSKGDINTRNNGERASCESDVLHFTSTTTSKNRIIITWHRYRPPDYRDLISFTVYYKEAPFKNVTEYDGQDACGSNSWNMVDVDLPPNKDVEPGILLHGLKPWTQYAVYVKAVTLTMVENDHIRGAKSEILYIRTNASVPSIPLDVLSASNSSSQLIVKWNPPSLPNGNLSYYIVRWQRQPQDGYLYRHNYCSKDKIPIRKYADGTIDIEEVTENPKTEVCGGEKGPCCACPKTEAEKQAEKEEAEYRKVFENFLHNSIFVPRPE
Insulin-like growth factor 1 receptor (Homo sapiens), sequence (P08069 741-1367 limits assumed): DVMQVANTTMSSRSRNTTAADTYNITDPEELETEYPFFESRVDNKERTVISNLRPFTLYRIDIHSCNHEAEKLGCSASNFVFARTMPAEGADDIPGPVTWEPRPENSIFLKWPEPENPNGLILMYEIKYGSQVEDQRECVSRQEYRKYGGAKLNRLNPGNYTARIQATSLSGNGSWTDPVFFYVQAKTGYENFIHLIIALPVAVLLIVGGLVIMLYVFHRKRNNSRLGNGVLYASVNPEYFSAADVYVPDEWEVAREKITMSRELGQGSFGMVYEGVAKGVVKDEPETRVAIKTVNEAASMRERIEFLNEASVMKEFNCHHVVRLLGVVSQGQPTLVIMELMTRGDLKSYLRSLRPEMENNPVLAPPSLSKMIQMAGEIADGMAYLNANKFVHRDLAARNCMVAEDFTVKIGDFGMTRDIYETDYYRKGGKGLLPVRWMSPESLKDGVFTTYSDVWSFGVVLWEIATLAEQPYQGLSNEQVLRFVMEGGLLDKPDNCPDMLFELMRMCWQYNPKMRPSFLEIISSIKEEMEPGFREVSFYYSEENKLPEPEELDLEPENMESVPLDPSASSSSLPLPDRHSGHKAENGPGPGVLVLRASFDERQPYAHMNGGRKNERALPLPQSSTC

Turning to `CCCCc1cc(-c2c[nH]c3ncc(-c4cnn(C5CCNCC5)c4)cc23)nc(N)n1`, the Activity in [1] is -27%; in experiment [2] it was -28%; in experiment [3] it was -86%; in [4], -85%; in [5] it was -56%; in experiment [6], -96%. For the same molecule, the Activity in [7] was -98%; in experiment [8], -9%; in [9], -21%; in experiment [10], -41%; in experiment [11], -94%; in experiment [12], -22%. In addition, the Activity in experiment [13] was -14%; in [14], -28%; in experiment [15], -86%; in experiment [16], -92%; in experiment [17], -25%; in [18], -80%.

As for `CCCCc1cc(-c2c[nH]c3ncccc23)nc(N)n1`, the Activity in experiment [3] was -82%; in [4], -89%; in [5], -46%; in [6] it was -21%; in [7], -25%; in [8], -23%. The Activity in experiment [9] is -3%; in [10], -6%; in experiment [11], -63%; in experiment [12] it was -10%; in [13], -12%; in experiment [15] it was -2%. Besides, the Activity in experiment [16] is -44%; in experiment [18], 3%.

As for `CCc1cc(-c2c[nH]c3ncc(-c4cnn(C5CCNCC5)c4)cc23)nc(N)n1`, the Activity was -34% in experiment [1]; -8% in experiment [2]; -42% in experiment [3]; -81% in experiment [4]; -43% in experiment [5]; -95% in experiment [6]. In addition, the Activity in experiment [7] was -87%; in experiment [8], -10%; in experiment [9], 3%; in experiment [10], -41%; in [11], -86%; in [12], -16%. Besides, the Activity is 3% in experiment [13]; -31% in [14]; -58% in experiment [15]; -81% in [16]; -19% in experiment [17]; -79% in [18].

For `Nc1nccc(-c2c[nH]c3ncccc23)n1` [MERIOLIN 1], the Activity was -2% in [1]; -6% in experiment [2]; -9% in [3]; -64% in experiment [4]; -49% in [5]; -40% in experiment [6]. Further, the Activity was -39% in experiment [7]; -23% in [8]; -9% in experiment [9]; -26% in experiment [10]; -73% in experiment [11]; -5% in experiment [12]. The Activity in [13] is -9%; in experiment [14], -13%; in experiment [15], -31%; in [16], -37%; in experiment [17] it was 28%; in experiment [18], -8%.

For the origin of these results see ChEMBL document CHEMBL3813616, “Discovery of novel 7-azaindoles as PDK1 inhibitors” (Bioorg Med Chem Lett, 2016).
